± gives the uncertainty stated by the source.
Experiment: xn = mol fraction of the nth substance listed

CC(=O)CC(C)C + CCC(C)(C)O
viscosity [mPa·s]
Settings	298.15 K	303.15 K	308.15 K	313.15 K
101 kPa, x1 = 0.1	2.52 ± 0.033	–	–	–
101 kPa, x1 = 0.2	1.823 ± 0.024	–	–	–
101 kPa, x1 = 0.3	1.376 ± 0.018	–	–	–
101 kPa, x1 = 0.4	1.1 ± 0.014	–	–	–
101 kPa, x1 = 0.5	0.928 ± 0.012	–	–	–
101 kPa, x1 = 0.6	0.815 ± 0.011	–	–	–
101 kPa, x1 = 0.7	0.727 ± 0.01	–	–	–
101 kPa, x1 = 0.8	0.65 ± 0.009	–	–	–
101 kPa, x1 = 0.9	0.584 ± 0.008	–	–	–
101.3 kPa, x1 = 0.1053	2.5 ± 0.069	2.11 ± 0.058	1.79 ± 0.049	1.52 ± 0.042
101.3 kPa, x1 = 0.1952	1.77 ± 0.049	1.52 ± 0.042	1.32 ± 0.036	1.15 ± 0.032
101.3 kPa, x1 = 0.305	1.37 ± 0.038	1.21 ± 0.033	1.07 ± 0.029	0.951 ± 0.026
101.3 kPa, x1 = 0.4324	1.05 ± 0.029	0.946 ± 0.026	0.856 ± 0.024	0.776 ± 0.021
101.3 kPa, x1 = 0.495	0.95 ± 0.026	0.866 ± 0.024	0.786 ± 0.022	0.721 ± 0.02
101.3 kPa, x1 = 0.6	0.813 ± 0.022	0.747 ± 0.021	0.69 ± 0.019	0.64 ± 0.018
101.3 kPa, x1 = 0.7004	0.719 ± 0.02	0.671 ± 0.019	0.627 ± 0.017	0.587 ± 0.016
101.3 kPa, x1 = 0.7937	0.641 ± 0.018	0.603 ± 0.017	0.569 ± 0.016	0.538 ± 0.015
101.3 kPa, x1 = 0.9001	0.589 ± 0.016	0.558 ± 0.015	0.529 ± 0.015	0.503 ± 0.014

C=C(C)[C@@H]1CC=C(C)CC1 + CC12CCC(CC1)C(C)(C)O2
viscosity [mPa·s], 101.33 kPa
Settings	298.15 K	313.15 K
x1 = 0.0715	2.345 ± 0.019	1.741 ± 0.014
x1 = 0.1121	2.23 ± 0.018	1.664 ± 0.014
x1 = 0.2018	1.995 ± 0.016	1.504 ± 0.012
x1 = 0.327	1.704 ± 0.014	1.305 ± 0.011
x1 = 0.4614	1.439 ± 0.011	1.123 ± 0.009
x1 = 0.5584	1.279 ± 0.01	1.011 ± 0.008
x1 = 0.6401	1.162 ± 0.009	0.929 ± 0.008
x1 = 0.7336	1.05 ± 0.008	0.851 ± 0.007
x1 = 0.8226	0.963 ± 0.008	0.785 ± 0.007
x1 = 0.8648	0.928 ± 0.008	0.759 ± 0.006
x1 = 0.9499	0.872 ± 0.007	0.716 ± 0.006

Cc1cn([C@H]2CC(O)[C@@H](CO)O2)c(=O)[nH]c1=O (stereo not given in full) + O
viscosity [mPa·s], 101.3 kPa
Settings	x1 = 9.02e-05	x1 = 0.000159	x1 = 0.0002266	x1 = 0.0003081	x1 = 0.0004541	x1 = 0.0004775
298.15 K	0.893 ± 0.025	0.894 ± 0.025	0.895 ± 0.025	0.897 ± 0.025	0.899 ± 0.026	0.9 ± 0.026
308.15 K	0.721 ± 0.025	0.722 ± 0.025	0.723 ± 0.025	0.724 ± 0.025	0.726 ± 0.025	0.727 ± 0.025
318.15 K	0.598 ± 0.024	0.598 ± 0.024	0.599 ± 0.024	0.6 ± 0.024	0.602 ± 0.024	0.602 ± 0.024

Source: the CheMixHub viscosity set
